In this assay the target is Integrin alpha-4/beta-1 (Homo sapiens, UniProt P05556+P13612). Briefly: Inhibition of VCAM (vascular cell adhesion molecule) adhesion to alpha4-beta1 integrin of leukocyte cells. Type of assay: functional, cell-based.

The structures appear in SMILES notation.

Chain of Integrin alpha-4/beta-1 (P05556 whole entry): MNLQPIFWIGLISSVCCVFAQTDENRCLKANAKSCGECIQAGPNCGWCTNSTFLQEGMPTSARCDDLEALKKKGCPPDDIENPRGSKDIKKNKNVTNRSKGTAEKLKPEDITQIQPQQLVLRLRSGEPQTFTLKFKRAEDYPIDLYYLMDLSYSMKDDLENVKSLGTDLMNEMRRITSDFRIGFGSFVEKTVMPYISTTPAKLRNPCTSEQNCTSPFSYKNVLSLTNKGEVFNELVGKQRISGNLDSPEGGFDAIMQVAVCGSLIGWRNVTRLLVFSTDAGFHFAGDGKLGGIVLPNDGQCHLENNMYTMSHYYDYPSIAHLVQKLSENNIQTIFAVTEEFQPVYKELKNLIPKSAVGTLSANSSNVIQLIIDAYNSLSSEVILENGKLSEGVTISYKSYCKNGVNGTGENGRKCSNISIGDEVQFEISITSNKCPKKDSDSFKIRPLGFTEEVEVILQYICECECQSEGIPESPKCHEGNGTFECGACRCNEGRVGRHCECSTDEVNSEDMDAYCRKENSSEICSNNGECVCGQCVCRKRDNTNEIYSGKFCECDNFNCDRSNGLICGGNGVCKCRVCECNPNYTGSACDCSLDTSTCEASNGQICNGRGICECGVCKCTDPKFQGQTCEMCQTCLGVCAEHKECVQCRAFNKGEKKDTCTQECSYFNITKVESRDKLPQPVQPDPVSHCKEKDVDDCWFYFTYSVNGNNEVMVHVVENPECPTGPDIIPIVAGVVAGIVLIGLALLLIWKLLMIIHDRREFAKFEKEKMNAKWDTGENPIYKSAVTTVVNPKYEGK
Chain of Integrin alpha-4/beta-1 (P13612 whole entry): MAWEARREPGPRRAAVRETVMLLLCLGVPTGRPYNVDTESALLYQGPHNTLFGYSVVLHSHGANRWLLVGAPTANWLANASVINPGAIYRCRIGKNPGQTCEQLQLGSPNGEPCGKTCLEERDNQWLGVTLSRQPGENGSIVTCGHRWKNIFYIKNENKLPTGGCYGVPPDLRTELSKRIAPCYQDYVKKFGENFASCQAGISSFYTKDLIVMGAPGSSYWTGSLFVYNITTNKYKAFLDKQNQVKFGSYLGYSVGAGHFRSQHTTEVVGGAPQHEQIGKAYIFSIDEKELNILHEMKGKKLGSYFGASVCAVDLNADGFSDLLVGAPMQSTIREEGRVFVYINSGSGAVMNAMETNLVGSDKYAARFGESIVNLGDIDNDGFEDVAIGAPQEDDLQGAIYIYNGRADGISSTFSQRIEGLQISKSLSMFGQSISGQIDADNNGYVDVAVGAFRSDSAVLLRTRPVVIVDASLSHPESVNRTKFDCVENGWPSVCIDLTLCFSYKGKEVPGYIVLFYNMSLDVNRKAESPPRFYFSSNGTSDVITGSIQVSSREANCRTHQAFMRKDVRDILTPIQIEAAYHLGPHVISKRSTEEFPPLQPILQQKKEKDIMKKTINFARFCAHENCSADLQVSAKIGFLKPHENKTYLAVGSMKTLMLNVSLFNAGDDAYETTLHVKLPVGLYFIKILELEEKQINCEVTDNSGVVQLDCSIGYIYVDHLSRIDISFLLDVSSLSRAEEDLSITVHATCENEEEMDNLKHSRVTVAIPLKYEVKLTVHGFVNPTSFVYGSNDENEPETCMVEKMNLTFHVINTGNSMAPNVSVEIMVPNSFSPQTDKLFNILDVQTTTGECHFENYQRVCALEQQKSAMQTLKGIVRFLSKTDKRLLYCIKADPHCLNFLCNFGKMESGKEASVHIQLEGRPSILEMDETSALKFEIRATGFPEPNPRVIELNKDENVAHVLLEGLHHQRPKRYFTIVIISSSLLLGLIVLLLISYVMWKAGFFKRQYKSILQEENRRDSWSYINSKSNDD

As for `O=C(O)[C@H](CSSCCNC(=O)C12CC3CC(CC(C3)C1)C2)NC(=O)C12CC3CC(CC(C3)C1)C2`, the IC50 (in general, the concentration needed to halve the response being measured) turned out to be 4100 nM. As for `O=C(O)C[C@H]1CN2CCCC[C@H]2C(=O)N[C@H](C(=O)O)CSSC[C@H](NC(=O)C23CC4CC(CC(C4)C2)C3)C(=O)N1`, the midpoint of inhibition, the IC50, lay at 12 nM. Molecule `O=C(O)C[C@H]1CN2CSC[C@H]2C(=O)N[C@H](C(=O)O)CSSC[C@H](NC(=O)C23CC4CC(CC(C4)C2)C3)C(=O)N1` gave an IC50 of 47 nM. To `CC(=O)N1CSC[C@H]1C(=O)N[C@@H](CSSCCNC(=O)C12CC3CC(CC(C3)C1)C2)C(=O)O` belongs 280 nM; to `O=C(O)[C@H](CSSC[C@H](NC(=O)C12CC3CC(CC(C3)C1)C2)C(=O)O)NC(=O)C12CC3CC(CC(C3)C1)C2`, 7300 nM; to `COC(=O)[C@H](CSSC[C@H](NC(=O)C12CC3CC(CC(C3)C1)C2)C(=O)O)NC(=O)C12CC3CC(CC(C3)C1)C2`, 5100 nM. To `COC(=O)[C@H](CSSC[C@H](NC(=O)[C@@H]1CCCN1C(C)=O)C(=O)O)NC(=O)C12CC3CC(CC(C3)C1)C2` belongs 25200 nM; to `O=C(O)C[C@H]1CN2CCC[C@H]2C(=O)N[C@H](C(=O)O)CSSC[C@H](NC(=O)C23CC4CC(CC(C4)C2)C3)C(=O)N1`, 170 nM; to `CC(=O)N1CCC[C@H]1C(=O)N[C@@H](CSSCCNC(=O)C12CC3CC(CC(C3)C1)C2)C(=O)O`, 2340 nM.

For the molecule `CC(=O)N1CCCC[C@H]1C(=O)N[C@@H](CSSCCNC(=O)C12CC3CC(CC(C3)C1)C2)C(=O)O`, the IC50 is 425 nM. This IC50 is about 5.5-fold lower than that of the molecule before. In the case of `C[C@H]1CN2CCC[C@H]2C(=O)N[C@H](C(=O)O)CSSC[C@H](NC(=O)C23CC4CC(CC(C4)C2)C3)C(=O)N1`, 330 nM corresponded to half-maximal inhibition (IC50). Under `COC(=O)[C@H](CSSC[C@H](NC(=O)C12CC3CC(CC(C3)C1)C2)C(=O)OC)NC(=O)C12CC3CC(CC(C3)C1)C2` stands over 800000 nM.

The record behind these values is ChEMBL document CHEMBL1133362, “Discovery and evaluation of potent, cysteine-based alpha4beta1 integrin antagonists” (Bioorg Med Chem Lett, 2000).
